The values that follow come from ChEMBL document CHEMBL2074424, “Breast cancer resistance protein directly confers SN-38 resistance of lung cancer cells” (Biochem Biophys Res Commun, 2001).

The data set deals with T1, Broad substrate specificity ATP-binding cassette transporter ABCG2 (Homo sapiens, UniProt Q9UNQ0).
T1 sequence (Q9UNQ0 whole entry): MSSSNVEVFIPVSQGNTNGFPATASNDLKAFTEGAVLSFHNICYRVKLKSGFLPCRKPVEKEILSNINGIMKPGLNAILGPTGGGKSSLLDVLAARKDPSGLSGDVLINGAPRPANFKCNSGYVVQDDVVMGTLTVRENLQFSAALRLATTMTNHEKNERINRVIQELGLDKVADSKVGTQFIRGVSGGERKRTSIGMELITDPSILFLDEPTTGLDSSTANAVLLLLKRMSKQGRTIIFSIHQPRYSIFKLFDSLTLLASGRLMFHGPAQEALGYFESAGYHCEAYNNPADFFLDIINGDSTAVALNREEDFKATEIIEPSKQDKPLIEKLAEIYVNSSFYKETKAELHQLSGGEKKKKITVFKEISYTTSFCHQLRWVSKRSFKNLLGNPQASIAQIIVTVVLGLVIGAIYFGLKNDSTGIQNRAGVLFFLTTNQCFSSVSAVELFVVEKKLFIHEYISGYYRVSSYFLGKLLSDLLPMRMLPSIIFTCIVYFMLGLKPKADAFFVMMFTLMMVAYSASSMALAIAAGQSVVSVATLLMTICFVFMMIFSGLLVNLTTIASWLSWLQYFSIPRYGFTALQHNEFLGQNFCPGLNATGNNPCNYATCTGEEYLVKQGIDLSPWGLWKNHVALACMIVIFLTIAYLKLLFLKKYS
The data set can be described thus: TP_TRANSPORTER: inhibition of accumulation by antisense of BCRP in PC-6/SN2-5,PC-6/SN2-5H cells. The data set is classed as functional, cell-based.

For the compound `CCc1c2c(nc3ccc(O)cc13)-c1cc3c(c(=O)n1C2)COC(=O)[C@]3(O)CC` [7-ETHYL-10-HYDROXYCAMPTOTHECIN], the Activity result was “substrate [+]”.
